row,Structure (SMILES),melting point [°C]
1,O=C(NCC(=O)N1c2ccccc2N(Cc2ccccc2)C(=O)[C@H]2CCC[C@H]21)c1cccnc1 (relative stereo),189 to 191
2,C/C(=C\c1ccc2c(c1)OCO2)C(=O)O,205
3,N#CCSc1nnc2ccccn12,121 to 123
4,CC1(c2nnn[nH]2)CC(Cl)(I)C=CC1N (stereo not drawn),205 to 208
5,Cc1cncc(C)c1-c1c(C)cc(OS(=O)(=O)C(F)(F)F)cc1C,68 to 69
6,CCCCCCCCCN(CCCCC)CCC(=O)O,168 to 176
7,O=C(Oc1ccccc1)N1Cc2ccccc2C(c2ccccc2)c2ccccc21 (stereo not drawn),155 to 165
8,O=Cc1ccc(-c2cc(C(F)(F)F)n(Cc3ccccc3)n2)o1,76.5 to 77.5
9,CCCCCCNc1ccc(N=O)cc1,46 to 48
10,CCCCC1(N(C)C)CCC(c2[nH]c3ccc(C#N)cc3c2C)CC1 (stereo not drawn),162 to 166
11,CNC(=S)C1(c2cccc(C)n2)CCCCS1=O (stereo not drawn),234
12,CCCCC(=O)Oc1c(-c2ccc(-c3ccccc3)cc2)nc2ccc(F)cc2c1C(=O)O,214 to 217
13,O=C(O)C=CC(=O)Oc1ccc(Nc2ccccc2)cc1,139 to 142
14,CC(C)c1cc(CCCOc2ncccc2CC(=O)O)n(Cc2ccc(Cl)cc2Cl)n1,111 to 112
15,COc1cc(OC)cc(-c2nsnc(Cl)c2=O)c1,121 to 124
16,Cc1nc(N)c2nc(O)n(Cc3cc(-c4ccc(F)cc4)no3)c2c1C,250
17,O=S(=O)(C=Cc1ccc(F)cc1)Oc1ccccc1,108
18,O=C(CCC(=O)Oc1ccc(C(=O)OCc2ccccc2)cc1)Oc1ccc(C(=O)OCc2ccccc2)cc1,106 to 107
19,CCC1(CC)c2ccc(C)cc2C(CC)(CC)N1OC(C)=O,76 to 78
20,CC(=O)OCC(=O)C1C(C)CC2C3CC(F)C4=CC(=O)C=CC4(C)C34OC4CC21C (stereo not drawn),154 to 162
21,Cn1c2ccc(Cl)cc2c2cc(C(=O)N3CCOCC3)sc21,178 to 182
22,CCNC(=O)CCCC=CCC1C(O)CC(O)C1C=CC(O)CCc1ccccc1 (stereo not drawn),64 to 66
23,COc1cccc2c1C=C(C(=O)O)C(CC(F)(F)F)O2 (stereo not drawn),204 to 207
24,CN1CCC(C2(O)c3sccc3CCn3ccnc32)CC1 (stereo not drawn),177
25,Cc1ccc2ccc(NCc3c(C)c(CNc4ccc5ccc(C)nc5n4)c(C)c(CNc4ccc5ccc(C)nc5n4)c3C)nc2n1,207 to 208
26,CN(C)c1ccc(/C=C/c2c(F)ccc(F)c2F)cc1,91 to 92

row,Structure (SMILES),melting point [°C]
1,NS(=O)(=O)c1cc(C(=O)O)cc([N+](=O)[O-])c1Sc1ccccc1,245 to 247
2,Cc1ccc(S(=O)(=O)ON=C2C3=C(C=C4OCCC42)CCCO3)cc1 (stereo not drawn),118
3,CSCCC(NCc1ccccc1N)C(=O)O (stereo not drawn),198
4,O=C(Nc1cccnc1Cl)c1ccccc1F,122
5,CCCOc1cc(CCCOc2nn(C)cc2CC(=O)O)n(Cc2ccc(Cl)cc2Cl)n1,77 to 81
6,Cc1oc(-c2ccco2)nc1CCOc1ccc(C#N)cc1,105 to 108
7,O=c1[nH]cnc2cscc12,275 to 278
8,COc1ccc2ncc(NC(=O)C=Cc3cc(OC)c(OC(C)=O)c(OC)c3)c(-c3ccccc3)c2c1,273 to 275
9,CC(=O)Nc1ccc(C=[N+]([O-])Cc2ccccc2)cc1,231 to 238
10,O=C(Oc1ccccc1)OC1c2ccccc2C(=O)N1c1ccc2ccc(Cl)nc2n1 (stereo not drawn),235
11,O=S(=O)(c1ccccc1)c1ncc(F)cn1,105
12,CC1=CC(C)(C)Cc2c1nc(C(C)C)c(CO)c2-c1ccc(F)cc1,112 to 114
13,CN(C)CCC(=O)Nc1ccc2c(=O)c3ccc(NC(=O)CCN(C)C)cc3[nH]c2c1,> 320
14,CN(C)Cc1nnc2n1-c1ccc(Cl)cc1C(c1ccccc1)=NC2,168 to 171
15,COc1ccc(-c2nc(CN(c3ccccc3)c3ccccc3)nc3cc(OC)c(OC)cc23)cc1OC,215 to 216
16,COC(=O)C12COc3cc(C(F)(F)F)ccc3C1=NN(C(=O)Nc1ccc(Br)cn1)C2 (stereo not drawn),179 to 181
17,COc1ccc(S(=O)(=O)N(CC#N)c2ccc(Cl)cc2C(=O)c2ccccc2Cl)cc1OC,164
18,O=c1oc2ccccc2c(O)c1CCC(O)c1ccccc1 (stereo not drawn),138 to 140
19,COc1ccc2[nH]c(COC(C)=O)c(C=O)c2c1[N+](=O)[O-],201 to 203
20,Cc1nc(N2CCN(CC3CC3)C2=O)sc1C(=O)NCc1ccncn1,188 to 191
21,Nc1ccc(Nc2ccccc2[N+](=O)[O-])cc1,110 to 112
22,COC(=O)Nc1c(C/C=C(\C)CCC(=O)O)c(OC)c(C)c2c1C(=O)OC2,155 to 158
23,CCCCNc1cc(CN(Cc2ccccc2)C(=O)OCC)cc(S(N)(=O)=O)c1Oc1ccccc1,82 to 83
24,Cc1ccc(NC(=O)c2cc(Cl)ccc2NCC2CCN(C3CCSC3)CC2)nc1 (stereo not drawn),151 to 153
25,N#CC(NC(=O)c1cccn2c(Cl)cnc12)c1ccco1 (stereo not drawn),142 to 143
26,CCCCCCCCCc1c(Cl)nc(-c2ccc(OC)c(F)c2)nc1Cl,59 to 60

row,Structure (SMILES),melting point [°C]
1,O=C(O)C(CC1CCCC1)c1ccc([N+](=O)[O-])cc1 (stereo not drawn),119 to 125
2,CSc1ccc2c(c1)Cc1ccc(CO)cc1O2,151 to 153
3,COC(=O)c1ccc(SC)c(-c2cc(C)no2)c1C,94 to 95
4,COc1ccccc1Oc1c(O)nc(O)nc1O,202 to 204
5,O=C(CN1C(=O)c2ccccc2S1(=O)=O)OCCO,125 to 126
6,O=c1[nH]c2ccc([C@H]3CC[C@H](NCCCc4ccc(F)cc4)CC3)cc2[nH]1,336 to 339
7,CCOC(=O)CCc1ccc2cc(O)ccc2c1,90 to 91
8,CCOC(=O)c1ccc(CCN2CCN(Cc3ccc(OC)cc3)CC2)cc1,75 to 76
9,Nc1cnc(Oc2ccc(Cl)c3c2CCCC3)c(Cl)c1,130 to 132
10,COc1ccc(Br)c(C(=O)N2CCN(S(=O)(=O)c3c(F)cccc3F)CC2)c1,154
11,O=[N+]([O-])c1nccn1CC(O)CN1CCCCC1 (stereo not drawn),108 to 109
12,CC(=O)OC1CSC(Oc2cccc(-c3ccc(C#N)nc3)c2)C(OC(C)=O)C1OC(C)=O (stereo not drawn),130
13,c1ccc2c(c1)nc(NCCN1CCNCC1)c1c3ccccc3[nH]c21,210 to 211
14,CC(C)=NOCc1nc2c(N)nc3cc(-c4ccccc4)cnc3c2n1CC(C)C,196 to 197
15,O=S(=O)(Nc1ccccc1CO)C(F)(F)F,60 to 61
16,CC(C)(OCCN1C(=O)c2ccccc2C1=O)OCCN1C(=O)c2ccccc2C1=O,139 to 141
17,Cc1ccc2c(c1)CN1CCCC1C(=O)N2C (stereo not drawn),80 to 82
18,O=C1NC(=O)C(c2ccccc2)(c2c[nH]c3ccccc23)N1 (stereo not drawn),302 to 303
19,CC(C)C(NS(=O)(=O)c1ccc(-c2cccc(CNC(=O)c3nc4ccccc4c(=O)[nH]3)c2)cc1)C(=O)NO (stereo not drawn),153 to 155
20,CCC1(NC(=O)CCl)COCOC1,89 to 95
21,CC(C)NCCc1ccc(O)cc1,102 to 104
22,Cc1oc(-c2ccccc2)nc1CCOc1ccc(C[C@@H](C(=O)O)N2CCN(S(=O)(=O)c3ccccc3)CC2)cc1,180 to 182
23,O=[N+]([O-])c1cc(N=c2sc(=S)n3n2CCCC3)c(F)cc1Cl,171 to 173
24,Cc1ccc2oc(=O)c(-c3ccccc3)c(OCCN3CCOCC3)c2c1,96
25,CCOCC1OC(n2cc(C(F)(F)F)c(=O)n(C(=O)c3ccccc3)c2=O)CC1O (stereo not drawn),156 to 157
26,CC(C)(C)OC(=O)CC(NC(=O)Nc1cccc(C(=O)O)c1)C(=O)Nc1ccccc1C(=O)c1ccccc1 (stereo not drawn),175 to 180

row,Structure (SMILES),melting point [°C]
1,COc1cc(C)c2cc(C(C)O)ccc2c1C (stereo not drawn),78
2,CC(=O)N1c2ccccc2CC1C(N)=NO (stereo not drawn),204 to 205
3,Nc1ncnc2c1ncn2C1OC(CS)C(O)C1O (stereo not drawn),108 to 109
4,O=C(Nc1ccccn1)c1nc2ccccc2[nH]1,206
5,COC(=O)COc1ccc(OC2CCN(c3ccncc3)CC2)cc1,74 to 76
6,CCCCCN(CCC12CC3CC(CC(C3)C1)C2)C(=O)NCCc1ccc(O)cc1,96.3 to 99.4
7,CON=C(C)c1cc(C#N)c(=O)[nH]c1C,275 to 285
8,CC(=O)Oc1ccccc1CC1CNC(=O)O1 (stereo not drawn),98 to 99
9,COc1cc(OC)n2nc(NS(=O)(=O)c3c(Cl)cccc3Cl)nc2n1,211 to 213
10,CN(CCC=C1c2ccccc2COc2ccccc21)CCCCCC(O)c1ccc(C(C)(C)C)cc1 (stereo not drawn),73 to 75
11,CCOC(=O)N1C(=O)NC(C)=C(C(=O)OC)C1c1cccc(Cl)c1Cl (stereo not drawn),159 to 160
12,COc1cccc(/C=C/c2nc3c([nH]2)c(=O)n(C)c(=O)n3C)c1OC,289 to 290
13,Nc1cc(-n2cc(C(=O)O)c(=O)c3cc(F)c(N4CC(N)C4)c(Cl)c32)ncc1F,280
14,CCc1coc2c(Cc3ccc(C(C)C)cc3)c(C)cc(C)c12,62 to 64
15,OCc1ncc2n1CCCC2,188 to 199
16,COc1ccc(C2=NN(Cc3ccc(C(=O)O)cc3)C(=O)[C@H]3CC=CC[C@@H]23)cc1OC (relative stereo),192 to 193
17,Cn1cnnc1C(OCCO)(c1ccc(F)cc1)c1cc2c3c(c1)c(-c1cccc(Cl)c1)cc(=O)n3CC2 (stereo not drawn),138
18,Cc1cccc(C)c1NC(=O)C(C)N1CSCC1=O (stereo not drawn),153 to 154
19,O=c1ccc(C(F)(F)F)cn1Cc1ccc([N+](=O)[O-])cc1,121 to 123
20,Cc1c(NC(=O)c2ccccc2NCc2ccc(=O)[nH]c2)cccc1C(F)(F)F,191 to 192
21,CCc1cccc(C)c1CNc1nc(OCCOC)cc2c1nc(C)n2C,105
22,Cc1nccc2c3ccc(OCc4cccc(F)c4)cc3n(Cc3cccc(F)c3)c12,148
23,OCc1ccnc(F)c1,61 to 63
24,CC(c1cccc(O)c1)N(C)C (stereo not drawn),85 to 86
25,O=C(O)c1ncc(Cl)nc1Cl,139 to 141

# — a melting point compilation (Tetko et al.; mined from patent text by program, amines drawn as free bases though some values may be those of a salt)
